pIC50: −log10 of the molar value. Where a name gives a salt, the structure may show the parent alone. Read-outs that look alike come from different tables or passages of the source.
How the values were obtained:
[1] = tested on: acetylcholine-induced abdominal constriction; assay: acetylcholine-induced abdominal constriction test (ACH); type: in vivo; parameters: key to ACH remark (Depr. = depressant): The abbreviations IA and Depr. represent, respectively, inactive and depressant; The abbreviations IA and Depr. represent, respectively, inactive and depressant; conditions: mice; for ED50 / inhibition in vivo at 100 mg/kg: Mus musculus; for inhibition in vivo at 100 mg/kg: dose level 100, read-out: ACH percent inhibition at dose 100; for ACH percent inhibition at dose 30: dose level 30
Source text: J. Pharmacol. Chemotherap. 32, 295 (1968); a modification of the anti-bradykinin test, which is also a primary analgesic screening procedure, described by Berkowitz et al., J. Pharmacol. Exptl. Therap. 177, 500-508 (1971), Blane et al., J. Pharm. Pharmacol. 19, 367-373 (1967), Botha et al., Eur. J. Pharmacol. 6, 312-321 (1969) and Deffenu et al., J. Pharm. Pharmacol. 18, 135 (1966); and the Randall-Selitto analgesic test described by Randall and Selitto, Arch. Int. Pharmacodyn., 111, 409-419 (1957).
Data in the developing adjuvant arthritis (AA) and plasma fibronectin (FN) assays are expressed as percent inhibition, i.e. inhibition of non-injected paw inflammation (NIP) and injected paw (RPV) and lowering of plasma fibronectin, the asterisks * and ** indicating statistical significance at the p<0.01 and p<0.05 levels, respectively. […] Non-statistically significant results are recorded as "------ ". In the acetylcholine-induced abdominal constriction test, the test compounds were administered either as suspensions in gum tragacanth (GT) or as aqueous solutions prepared by addition of just sufficient dilute aqueous methanesulfonic acid (MS) or dilute aqueous lactic acid (LA) to dissolve the compound. The compounds are identified by the example number above where their preparations are described. All data in the anti-bradykinin, rat writhing and Randall-Selitto tests were obtained on oral administration.

[2] = tested on: mouse vasa deferentia preparation; assay: mouse vas deferens test (MVD); type: cell-based; conditions: Mus musculus, inhibition of contractions, in vitro; active at 5.0 μM or less
Source text: It has been shown previously that smoking marijuana reduces intraocular pressure in man [Helper and Frank, Marijuana Smoking and Intraocular Pressure., J. Am. Med. Assoc. 217, 1392 (1971)]. Topical application or systemic injection of delta-9 tetrahydrocannabinol, a principal active ingredient in marijuana, also reduces intraocular pressure [Purnell and Gregg, delta-9 Tetrahydrocannabinol, Euphoria and Intraocular Pressure in Man., Ann. Opth. 7, 921-923 (1975); Green and Pederson, Effect of delta-9 Tetrahydrocannabinol on Aqueous Dynamics and Ciliary Body Permeability in the Rabbit Eye., Exptl. Eye Research 15, 499-507 (1973); Colasanti, Craig and Allara, Intraocular Pressure, Ocular Toxicity and Neurotoxicity after Administration of Cannabinol or Cannibigerol, Exptl. Eye Research 39, 252-259 (1984)]. Similarly, synthetic cannabinoids also reduce intraocular pressure [Green, Symunds, Oliver and Elijah, Intraocular Pressure Following Systemic Administration of Cannabinoids., Curr. Eye Research 2, 247-253 (1982); Tiedeman, Shields, Weber, Crow, Coccetto, Harris and Howes, Opthalmology, 88, 270-277 (1981); Colasanti et al., supra]. Cannabinoid receptor binding sites can be defined as those to which radio-labelled 4-(1,1-dimethylheptyl)-2,3'-dihydroxy-6'alpha-(3-hydroxypropyl)-1', 2', 3', 4', 5', 6'-hexahydrobiphenyl (CP 55940) binds in a specific and saturable manner and the binding sites are heterogeneously distributed in the brain [Devane, Dysarz, Johnson, Melvin and Howlett, Determination and Characterization of a Cannabinoid Receptor in Rat Brain, Molecular Pharm. 34, 605-613 (1988)]. Natural and synthetic cannabinoids and certain of the compounds of the present invention, as more particularly described above, bind to CP 55940 binding sites. […] It is believed that agonist activity at the cannabinoid receptor mediates the anti-glaucoma actions of cannabinoids, and that agonist activity at this receptor correlates with ocular pressure lowering actions in man. Accordingly the cannabinoid receptor agonist activity of the compounds of the present invention indicate their usefulness in reducing ocular pressure.

[3] = Table 9, Examples, no route marked in the cell, read-out: ACH ED50
[4] = iv, Table 9, iv, read-out: ACH ED50 (iv)

Structure (SMILES)	pIC50 [2]	also measured
CN1CCCCC1Cn1cc(C(=O)c2ccccc2F)c2ccccc21 (centres unmarked) [Example 2AC]	8.52	ED50 [1, 3]: 10 mg/kg; ACH remark (Depr. = depressant) ([1]; Table 9, remark beside the ED50): Depr.
O=C(c1cccc2ccccc12)c1cn(CC2COCCN2Cc2ccccc2)c2ccccc12 (centres unmarked) [Example 3F]	6.65	ED50 [1, 4]: 2.2 mg/kg
Cc1c(C(=O)c2ccc(O)cc2)c2ccccc2n1CC1CCCN1C (centres unmarked) [Example 11A, 2-methyl-3-(4-hydroxybenzoyl)-1-[(1-methyl-2-pyrrolidinyl)methyl]-1H-indole hydrochloride]	6.55	
Cc1c(C(=O)c2cccc3ccccc23)c2ccccc2n1CC1CCCN1C (centres unmarked) [Example 2Q]	8.70	inhibition in vivo at 100 mg/kg ([1]; Table 9): 20%
Cc1c(C(=O)c2cccc3ccccc23)c2ccccc2n1CC1CN(C)CCO1 (centres unmarked) [Example 1G]	7.30	ED50 [1, 4]: 6 mg/kg; inhibition in vivo at 100 mg/kg ([1]; Table 9): 10%
COc1ccc(C(=O)c2c(C)n(CC3CCC(C)(C)N3C)c3ccccc23)cc1 (centres unmarked) [Example 1AH]	6.48	
O=C(c1cccc2ccccc12)c1cn(C2CCCCN(Cc3ccccc3)C2)c2ccccc12 (centres unmarked) [Example 2AO]	6.32	
O=C(c1cccc2ccccc12)c1cn(CC2CCCCN2Cc2ccccc2)c2ccccc12 (centres unmarked) [Example 2AM]	7.29	
O=C(c1cccc(F)c1)c1cn(CC2CCCN2)c2ccccc12 (centres unmarked) [Example 8F]	6.49	
Cc1c(C(=O)c2cccc3ccccc23)c2ccccc2n1C1CCCCN(C)C1 (centres unmarked) [Example 2AB]	7.89	inhibition in vivo at 100 mg/kg ([1]; Table 9): 30%
Cc1c(C(=O)c2ccccc2F)c2ccccc2n1CC1CCC(C)N1 (centres unmarked) [Example 8E]	6.80	
CN1CC[N+](C)(C)CC1Cn1cc(C(=O)c2cccc3ccccc23)c2ccccc21 (centres unmarked) [3G (quaternary)]	6.81	
COc1ccc(C(=O)c2c(C)n(C(C)C3CCCN3C)c3ccccc23)cc1 (centres unmarked) [Example 1AF]	6.27	ED50 [1, 3]: 19 mg/kg
CC(C1CCCN1C)n1cc(C(=O)c2ccccc2F)c2ccccc21 (centres unmarked) [Example 1AC]	6.95	inhibition in vivo at 100 mg/kg ([1]; Table 9): 40%
COc1ccc(C(=O)c2c(C)n(C3CN(C)C3)c3ccccc23)cc1.O=C(O)/C=C\C(=O)O [Example 10A, 2-methyl-3-(4-methoxybenzoyl)-1-(1-methyl-3-azetidinyl)-1H-indole maleate]	6.31	ED50 [1, 3]: 40 mg/kg
CN1CCN(C)C(Cn2cc(C(=O)c3cccc4ccccc34)c3ccccc32)C1 (centres unmarked) [3G (base)]	7.82	
O=C(c1cccc2ccccc12)c1cn(CC2CCCCN2)c2ccccc12 (centres unmarked) [Example 4I]	9.52	ACH percent inhibition at dose 30 ([1]; Table 9): 30%
CN1CCCC1Cn1cc(C(=O)c2ccccc2F)c2ccccc21 (centres unmarked) [Example 2M]	7.41	ED50 [1, 3]: 53 mg/kg
O=C(c1cccc2ccccc12)c1cn(CC2COCCN2)c2ccccc12 (centres unmarked) [Example 8G]	8.33	ACH percent inhibition at dose 30 ([1]; Table 9): 100%
Cc1c(C(=O)c2ccc(O)cc2)c2ccccc2n1CC1CCC(C)N1C (centres unmarked) [Example 11B, 2-methyl-3-(4-hydroxybenzoyl)-1-[(1,5-dimethyl-2-pyrrolidinyl)methyl]-1H-indole hydrochloride]	6.66	
CN1CCOCC1Cn1cc(C(=O)c2cccc3ccccc23)c2ccccc21.Cl (centres unmarked) [Example 10C, 3-(1-naphthylcarbonyl)-1-[(4-methyl-3-morpholinyl)methyl]-1H-indole hydrochloride]	9.40	ACH percent inhibition at dose 30 ([1]; Table 9): 50%
COc1ccc(C(=O)c2c(C)n(C[C@@H]3CC[C@H](C)N3C)c3ccccc23)cc1 (relative stereo) [Example 1Z]	7.32	ED50 [1, 3]: 14 mg/kg; ED50 [1, 4]: 3 mg/kg
